Source: ChEMBL document CHEMBL2396585, “Synthesis and biological evaluation of sorafenib- and regorafenib-like sEH inhibitors” (Bioorg Med Chem Lett, 2013)
Active and inactive are the calls of the source. The calls are words filed in the database; no cut-off is given here.

Assays:
[1] = target: RAF proto-oncogene serine/threonine-protein kinase (Homo sapiens, UniProt P04049); experiment: Inhibition of full length recombinant c-RAF (unknown origin) using MEK1 as substrate after 1 hr by luminescence assay
Sequence of RAF proto-oncogene serine/threonine-protein kinase (P04049 whole entry): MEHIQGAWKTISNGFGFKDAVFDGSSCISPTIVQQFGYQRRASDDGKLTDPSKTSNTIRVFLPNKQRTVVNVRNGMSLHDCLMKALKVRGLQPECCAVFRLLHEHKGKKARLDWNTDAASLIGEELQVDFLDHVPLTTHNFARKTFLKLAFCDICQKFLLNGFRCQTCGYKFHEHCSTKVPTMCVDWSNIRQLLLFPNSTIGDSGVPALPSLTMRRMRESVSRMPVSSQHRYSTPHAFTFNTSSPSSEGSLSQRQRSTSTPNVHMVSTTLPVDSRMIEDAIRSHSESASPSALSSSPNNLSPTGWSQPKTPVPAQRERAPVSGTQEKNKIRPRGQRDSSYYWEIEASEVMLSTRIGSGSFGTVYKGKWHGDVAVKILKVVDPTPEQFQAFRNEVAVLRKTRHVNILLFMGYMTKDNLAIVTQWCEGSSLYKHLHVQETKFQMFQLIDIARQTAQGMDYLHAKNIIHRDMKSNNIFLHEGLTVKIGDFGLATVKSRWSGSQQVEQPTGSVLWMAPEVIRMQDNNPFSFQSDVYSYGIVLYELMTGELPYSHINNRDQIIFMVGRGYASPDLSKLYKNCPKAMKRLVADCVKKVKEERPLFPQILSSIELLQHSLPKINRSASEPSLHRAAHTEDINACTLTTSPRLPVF

[2] = tested on: HepG2; experiment: Cytotoxicity against human HepG2 cells by MTT assay
[3] = tested on: HUVEC; experiment: cells; conditions: Homo sapiens, 72 h
Description: (§1) Antiproliferative activity against HUVEC after 72 hrs by MTT assay

[4] = tested on: Huh-7; experiment: Cytotoxicity against human HuH7 cells by MTT assay
[5] = target: T1, Bifunctional epoxide hydrolase 2 (Homo sapiens, UniProt P34913); experiment: Inhibition of human recombinant soluble epoxide hydrolase assessed as cyano(6-methoxy-naphthalen-2-yl)methyl trans-[(3-phenyloxyran-2-yl)methyl] carbonate conversion to 6-methoxy-2-naphthaldehyde preincubated for 5 mins prior to substrate addition by fluorescence assay
T1 sequence (P34913 whole entry): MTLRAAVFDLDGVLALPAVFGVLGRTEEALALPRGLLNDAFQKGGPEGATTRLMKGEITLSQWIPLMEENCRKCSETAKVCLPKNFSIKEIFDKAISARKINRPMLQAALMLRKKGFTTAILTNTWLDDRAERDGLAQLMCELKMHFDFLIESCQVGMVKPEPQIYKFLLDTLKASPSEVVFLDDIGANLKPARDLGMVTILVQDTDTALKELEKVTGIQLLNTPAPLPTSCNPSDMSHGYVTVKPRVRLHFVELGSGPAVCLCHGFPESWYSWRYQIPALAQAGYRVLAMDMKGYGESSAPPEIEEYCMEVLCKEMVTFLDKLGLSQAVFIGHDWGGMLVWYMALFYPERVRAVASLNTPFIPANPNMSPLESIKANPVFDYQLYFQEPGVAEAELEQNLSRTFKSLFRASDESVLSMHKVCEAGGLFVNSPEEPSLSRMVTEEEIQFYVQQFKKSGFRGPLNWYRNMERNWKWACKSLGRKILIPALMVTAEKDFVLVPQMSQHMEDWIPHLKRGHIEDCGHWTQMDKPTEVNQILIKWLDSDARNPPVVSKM

[6] = target: Vascular endothelial growth factor receptor 2 (Homo sapiens) (UniProt P35968); experiment: Inhibition of VEGFR-2 (unknown origin) at 10 uM after 1 hr by luminescence assay
Sequence of Vascular endothelial growth factor receptor 2 (Homo sapiens) (P35968 whole entry): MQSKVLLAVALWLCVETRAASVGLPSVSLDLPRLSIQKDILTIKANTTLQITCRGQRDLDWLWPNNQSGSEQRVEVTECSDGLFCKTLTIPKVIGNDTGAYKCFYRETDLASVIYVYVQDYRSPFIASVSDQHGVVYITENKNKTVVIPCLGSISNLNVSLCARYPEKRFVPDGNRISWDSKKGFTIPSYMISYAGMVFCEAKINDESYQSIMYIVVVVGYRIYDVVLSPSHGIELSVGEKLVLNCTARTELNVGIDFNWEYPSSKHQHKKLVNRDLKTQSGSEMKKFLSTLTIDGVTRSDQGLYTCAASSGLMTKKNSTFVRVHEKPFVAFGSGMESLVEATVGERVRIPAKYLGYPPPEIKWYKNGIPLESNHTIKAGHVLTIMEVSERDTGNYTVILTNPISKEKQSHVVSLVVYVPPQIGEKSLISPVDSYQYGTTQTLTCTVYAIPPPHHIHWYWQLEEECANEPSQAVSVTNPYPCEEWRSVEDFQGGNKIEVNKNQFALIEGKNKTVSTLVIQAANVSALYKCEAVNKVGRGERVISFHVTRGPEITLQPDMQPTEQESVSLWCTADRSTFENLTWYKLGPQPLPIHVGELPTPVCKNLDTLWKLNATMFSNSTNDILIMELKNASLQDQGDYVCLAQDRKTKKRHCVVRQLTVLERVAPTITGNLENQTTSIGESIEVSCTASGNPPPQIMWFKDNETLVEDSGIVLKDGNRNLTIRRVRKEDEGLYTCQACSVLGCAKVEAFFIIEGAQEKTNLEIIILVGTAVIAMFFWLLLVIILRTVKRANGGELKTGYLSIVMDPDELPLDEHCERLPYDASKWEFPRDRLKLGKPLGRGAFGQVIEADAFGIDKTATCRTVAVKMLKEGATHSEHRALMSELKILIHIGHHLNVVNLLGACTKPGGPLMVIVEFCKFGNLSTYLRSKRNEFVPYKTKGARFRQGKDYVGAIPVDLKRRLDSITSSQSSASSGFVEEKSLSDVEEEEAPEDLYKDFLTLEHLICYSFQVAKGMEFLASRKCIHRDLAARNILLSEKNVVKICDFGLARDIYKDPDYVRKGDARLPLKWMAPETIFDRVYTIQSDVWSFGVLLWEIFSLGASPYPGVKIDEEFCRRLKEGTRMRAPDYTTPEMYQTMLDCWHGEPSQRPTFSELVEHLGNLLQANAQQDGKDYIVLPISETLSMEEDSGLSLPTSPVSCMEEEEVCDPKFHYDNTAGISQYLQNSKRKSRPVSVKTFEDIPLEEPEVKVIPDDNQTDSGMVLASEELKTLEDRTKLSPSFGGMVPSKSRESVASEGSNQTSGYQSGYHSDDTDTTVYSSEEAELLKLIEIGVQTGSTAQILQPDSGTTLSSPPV

[7] = target: Serine/threonine-protein kinase B-raf (Homo sapiens, UniProt P15056, V600E); experiment: Inhibition of B-RAF V600E mutant (unknown origin) using MEK1 as substrate
[8] = target: Hepatocyte growth factor receptor (Homo sapiens) (UniProt P08581); conditions: at 10 µM
Description: Inhibition of recombinant MET (unknown origin) at 10 uM

[9] = target: Vascular endothelial growth factor receptor 1 (Homo sapiens) (UniProt P17948); experiment: Inhibition of recombinant FLT-1 (unknown origin) at 10 uM
[10] = target: Fibroblast growth factor receptor 2 (Homo sapiens) (UniProt P21802); experiment: Inhibition of recombinant FGFR-2 (unknown origin) at 10 uM
Sequence of Fibroblast growth factor receptor 2 (Homo sapiens) (P21802 22-821 limits assumed): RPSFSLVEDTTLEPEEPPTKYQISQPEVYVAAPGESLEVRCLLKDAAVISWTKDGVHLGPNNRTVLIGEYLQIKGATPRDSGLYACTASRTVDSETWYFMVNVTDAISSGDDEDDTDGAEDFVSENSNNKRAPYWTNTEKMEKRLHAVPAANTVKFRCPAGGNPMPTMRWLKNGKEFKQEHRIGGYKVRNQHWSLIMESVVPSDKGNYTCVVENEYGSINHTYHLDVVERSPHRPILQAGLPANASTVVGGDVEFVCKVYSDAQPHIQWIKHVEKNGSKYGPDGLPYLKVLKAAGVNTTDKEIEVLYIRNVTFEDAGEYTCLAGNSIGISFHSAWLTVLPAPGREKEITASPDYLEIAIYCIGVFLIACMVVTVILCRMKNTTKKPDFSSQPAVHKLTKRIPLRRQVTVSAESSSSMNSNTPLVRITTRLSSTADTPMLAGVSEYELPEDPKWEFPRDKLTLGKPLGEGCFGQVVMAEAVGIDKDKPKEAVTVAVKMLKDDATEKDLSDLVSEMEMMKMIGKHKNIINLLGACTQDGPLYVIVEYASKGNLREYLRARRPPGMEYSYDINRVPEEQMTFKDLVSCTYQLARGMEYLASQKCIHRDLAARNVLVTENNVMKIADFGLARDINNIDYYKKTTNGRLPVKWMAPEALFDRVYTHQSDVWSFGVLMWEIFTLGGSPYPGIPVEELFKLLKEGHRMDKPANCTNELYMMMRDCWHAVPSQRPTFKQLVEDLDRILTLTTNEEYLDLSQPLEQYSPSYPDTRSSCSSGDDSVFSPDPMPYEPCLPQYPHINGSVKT

[11] = target: Receptor-type tyrosine-protein kinase FLT3 (Homo sapiens) (UniProt P36888); experiment: Inhibition of recombinant FLT-3 (unknown origin) at 10 uM
[12] = target: Platelet-derived growth factor receptor beta (Homo sapiens) (UniProt P09619); experiment: Inhibition of recombinant PDGFRbeta (unknown origin) at 10 uM
Sequence of Platelet-derived growth factor receptor beta (Homo sapiens) (P09619 whole entry): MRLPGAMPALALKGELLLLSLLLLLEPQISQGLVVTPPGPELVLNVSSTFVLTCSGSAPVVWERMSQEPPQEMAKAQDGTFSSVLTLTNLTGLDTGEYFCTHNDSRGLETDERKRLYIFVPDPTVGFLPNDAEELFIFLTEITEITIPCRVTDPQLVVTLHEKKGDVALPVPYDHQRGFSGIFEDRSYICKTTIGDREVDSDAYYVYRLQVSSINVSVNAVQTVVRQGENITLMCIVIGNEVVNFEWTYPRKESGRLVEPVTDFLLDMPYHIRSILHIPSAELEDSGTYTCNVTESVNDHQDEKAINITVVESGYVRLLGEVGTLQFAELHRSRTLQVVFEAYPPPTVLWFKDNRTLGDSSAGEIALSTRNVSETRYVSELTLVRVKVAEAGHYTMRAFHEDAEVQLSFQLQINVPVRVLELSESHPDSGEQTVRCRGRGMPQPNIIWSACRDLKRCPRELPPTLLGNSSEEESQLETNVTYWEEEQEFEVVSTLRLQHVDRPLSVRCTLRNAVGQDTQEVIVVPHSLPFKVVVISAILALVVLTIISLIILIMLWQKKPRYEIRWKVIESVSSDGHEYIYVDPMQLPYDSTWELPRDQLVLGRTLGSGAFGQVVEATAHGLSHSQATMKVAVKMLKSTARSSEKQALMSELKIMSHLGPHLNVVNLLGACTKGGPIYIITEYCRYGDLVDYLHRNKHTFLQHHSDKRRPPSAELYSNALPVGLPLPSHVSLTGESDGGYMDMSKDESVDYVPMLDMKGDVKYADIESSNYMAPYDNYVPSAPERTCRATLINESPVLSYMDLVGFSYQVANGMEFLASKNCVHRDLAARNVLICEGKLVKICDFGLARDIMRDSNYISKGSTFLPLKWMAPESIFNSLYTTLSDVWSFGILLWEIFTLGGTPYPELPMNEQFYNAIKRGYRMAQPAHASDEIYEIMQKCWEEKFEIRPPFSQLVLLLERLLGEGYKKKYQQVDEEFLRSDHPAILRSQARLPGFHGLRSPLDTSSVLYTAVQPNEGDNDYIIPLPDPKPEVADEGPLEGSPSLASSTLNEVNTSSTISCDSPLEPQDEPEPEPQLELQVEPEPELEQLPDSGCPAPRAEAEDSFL

[13] = tested on: HUVEC
Description: as §1

[14] = target: Glycogen synthase kinase-3 alpha (Homo sapiens) (UniProt P49840); experiment: Inhibition of recombinant GSK3alpha (unknown origin) at 10 uM
Sequence of Glycogen synthase kinase-3 alpha (Homo sapiens) (P49840 2-483 limits assumed): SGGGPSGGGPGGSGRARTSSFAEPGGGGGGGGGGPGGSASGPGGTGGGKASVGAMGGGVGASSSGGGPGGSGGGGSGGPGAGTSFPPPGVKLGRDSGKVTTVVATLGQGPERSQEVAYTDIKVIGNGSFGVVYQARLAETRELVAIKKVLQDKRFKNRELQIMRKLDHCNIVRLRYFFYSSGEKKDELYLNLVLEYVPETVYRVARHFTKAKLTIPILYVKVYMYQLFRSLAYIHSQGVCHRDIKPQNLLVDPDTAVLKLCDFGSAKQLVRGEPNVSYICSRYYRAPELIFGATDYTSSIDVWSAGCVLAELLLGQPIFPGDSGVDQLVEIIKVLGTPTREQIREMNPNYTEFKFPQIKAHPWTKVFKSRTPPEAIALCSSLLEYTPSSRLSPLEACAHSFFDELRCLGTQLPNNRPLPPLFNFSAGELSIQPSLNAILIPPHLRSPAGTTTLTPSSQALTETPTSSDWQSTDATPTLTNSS

[15] = target: Vascular endothelial growth factor receptor 2 (Homo sapiens) (UniProt P35968); experiment: Inhibition of recombinant KDR (unknown origin) at 10 uM
[16] = target: T2, 3-phosphoinositide-dependent protein kinase 1 (Homo sapiens) (UniProt O15530); experiment: Inhibition of recombinant PDPK-1 (unknown origin) at 10 uM
T2 sequence (whole entry): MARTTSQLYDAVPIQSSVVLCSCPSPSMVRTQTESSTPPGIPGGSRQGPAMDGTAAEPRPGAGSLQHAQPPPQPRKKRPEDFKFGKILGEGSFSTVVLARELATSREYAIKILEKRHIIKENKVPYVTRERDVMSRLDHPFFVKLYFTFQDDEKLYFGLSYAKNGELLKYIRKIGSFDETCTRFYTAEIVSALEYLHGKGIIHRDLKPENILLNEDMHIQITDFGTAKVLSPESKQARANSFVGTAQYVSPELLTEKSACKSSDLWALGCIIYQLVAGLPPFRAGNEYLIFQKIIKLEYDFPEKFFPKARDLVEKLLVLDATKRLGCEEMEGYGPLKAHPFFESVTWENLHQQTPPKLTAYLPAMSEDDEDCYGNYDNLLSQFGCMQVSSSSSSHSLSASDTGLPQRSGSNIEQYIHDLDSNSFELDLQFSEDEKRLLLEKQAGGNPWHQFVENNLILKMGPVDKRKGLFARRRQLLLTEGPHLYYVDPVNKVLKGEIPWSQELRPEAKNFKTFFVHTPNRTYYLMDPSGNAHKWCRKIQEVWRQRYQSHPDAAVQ

[17] = target: Platelet-derived growth factor receptor alpha (Homo sapiens) (UniProt P16234); experiment: Inhibition of recombinant PDGFRalpha (unknown origin) at 10 uM
[18] = target: Tyrosine-protein kinase ABL2 (Homo sapiens) (UniProt P42684); experiment: Inhibition of recombinant ABL-2 (unknown origin) at 10 uM

| Structure (SMILES) | IC50 [1] | GI50 ([2]; Homo sapiens, HepG2) | GI50 [3] | GI50 ([4]; Homo sapiens, Huh-7) | IC50 [5] | further results |
| --- | --- | --- | --- | --- | --- | --- |
| CNC(=O)c1cc(O[C@H]2CC[C@H](NC(=O)Nc3ccc(OC(F)(F)F)cc3)CC2)ccn1 | > 10 µM | 7 µM | > 25 µM | 7 µM | – | – |
| CNC(=O)c1cc(O[C@H]2CC[C@@H](NC(=O)Nc3ccc(Cl)c(C(F)(F)F)c3)CC2)ccn1 | – | 7.5 µM | 10 µM | 8.5 µM | – | – |
| O=C(Nc1ccc(Cl)c(C(F)(F)F)c1)N[C@H]1CC[C@H](Oc2ccc(C(=O)O)cc2)CC1 | 4.3 µM | > 25 µM | 25 µM | > 25 µM | 0.0005 µM | – |
| CNC(=O)c1ccc(O[C@H]2CC[C@H](NC(=O)Nc3ccc(Cl)c(C(F)(F)F)c3)CC2)cc1 | – | > 25 µM | > 25 µM | 16 µM | – | – |
| CN(C)C(=O)c1cc(O[C@H]2CC[C@H](NC(=O)Nc3ccc(Cl)c(C(F)(F)F)c3)CC2)ccn1 | > 10 µM | 10 µM | – | 8 µM | 0.0005 µM | – |
| CNC(=O)c1ccc(O[C@H]2CC[C@H](NC(=O)Nc3ccc(Cl)c(C(F)(F)F)c3)CC2)cn1 | – | 7 µM | 10.5 µM | 8 µM | – | inhibition [6]: Active |
| CNC(=O)c1cc(Oc2ccc(NC(=O)Nc3ccc(Cl)c(C(F)(F)F)c3)c(F)c2)ccn1 [REGORAFENIB] | – | – | – | – | 0.0005 µM | – |
| CNC(=O)c1cc(Oc2ccc(NC(=O)Nc3ccc(OC(F)(F)F)cc3)cc2)ccn1 | – | 7 µM | > 25 µM | 7 µM | – | IC50 [7]: > 5 µM; inhibition [6]: Active |
| CS(=O)(=O)N1CCC(NC(=O)Nc2ccc(OC(F)(F)F)cc2)CC1 | > 10 µM | > 25 µM | > 25 µM | > 25 µM | – | – |
| CNC(=O)c1cc(Oc2ccc(NC(=O)NC34CC5CC(CC(C5)C3)C4)cc2)ccn1 | 1 µM | 10 µM | 25 µM | 7 µM | – | IC50 [7]: > 5 µM; inhibition [6]: Active |
| O=C(Nc1ccc(Cl)c(C(F)(F)F)c1)N[C@H]1CC[C@H](Oc2cccc(C(=O)O)c2)CC1 | > 10 µM | > 25 µM | 10.5 µM | > 25 µM | 0.0086 µM | – |
| CNC(=O)c1cccc(O[C@H]2CC[C@H](NC(=O)Nc3ccc(Cl)c(C(F)(F)F)c3)CC2)c1 | 0.293 µM | 6.5 µM | 11 µM | 7.5 µM | 0.001 µM | – |
| CNC(=O)c1cc(O[C@H]2CC[C@H](NC(=O)Nc3ccc(Cl)c(C(F)(F)F)c3)CC2)ccn1 | – | 7 µM | 11 µM | 8 µM | – | inhibition [6]: Active |
| CNC(=O)c1ccc(O[C@H]2CC[C@H](NC(=O)Nc3ccc(OC(F)(F)F)cc3)CC2)cc1 | > 10 µM | 7 µM | > 25 µM | 5.5 µM | – | – |
| O=C(Nc1ccc(OC(F)(F)F)cc1)N[C@H]1CC[C@H](Oc2ccc(C(=O)O)cc2)CC1 | – | – | – | – | – | inhibition [8]: inactive; GI50 [2]: 15 µM; inhibition [9]: inactive; inhibition [10]: inactive; inhibition [11]: inactive; inhibition [12]: inactive; GI50 [13]: > 25 µM; inhibition [14]: inactive; inhibition [15]: inactive; inhibition [16]: inactive; inhibition [17]: inactive; inhibition [18]: inactive; GI50 [4]: 20 µM |
| O=C(NC12CC3CC(CC(C3)C1)C2)N[C@H]1CC[C@H](Oc2ccc(C(=O)O)cc2)CC1 | – | – | – | – | – | inhibition [9]: inactive; inhibition [10]: inactive; inhibition [11]: inactive; inhibition [12]: inactive; inhibition [14]: inactive; inhibition [15]: inactive; inhibition [16]: inactive; inhibition [17]: inactive; inhibition [18]: inactive |
| CNC(=O)c1ccc(O[C@H]2CC[C@H](NC(=O)NC34CC5CC(CC(C5)C3)C4)CC2)cc1 | > 10 µM | 7 µM | > 25 µM | 5.5 µM | – | – |
| CCN(CC)CCNC(=O)c1c(C)[nH]c(/C=C2\C(=O)Nc3ccc(F)cc32)c1C [SUNITINIB] | – | – | – | – | > 10 µM | – |
